Measured values from patent US10829473B2, “Modulators of the cystic fibrosis transmembrane conductance regulator protein and methods of use” (AbbVie Overseas S.Á.R.L., priority 2017, dated 2020).
Where two headings read alike, the source gives them in different places. Marks after values point to notes of the source that are not given here.

Target: T1, F508delCFTR (Homo sapiens, UniProt P13569, DEL508-508)
T1 construct: expressed in transfected cells; host or cells: CFBE41o- human lung derived epithelial cells (CFBE41o-F508delCFTR-HRP), doxycycline-inducible
Assay: Cell Surface Expression-Horse Radish Peroxidase (CSE-HRP) Assay;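 on EC50 (with co-corrector): co-corrector chromenyl benzoic acid corrector at 2 or 3 µM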;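 on Maximum % activity (without co-corrector): % of on-plate positive control chromenyl benzoic acid corrector at 2 or 3 µM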
Type: cell-based
Details: for Maximum % activity (with co-corrector) / Emax: maximum at any tested concentration; for Emax: read-out: Maximum % activity (without co-corrector)
Outline: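 Corrector compounds were given as 8-point 3-fold series from 20 or 30 μM, with or without a 2 μM co-corrector, for 18-24 h at 33 °C. Surface HRP was read by luminol luminescence as % of positive control; variable-Hill-slope sigmoidal fitting gave EC50 from triplicate plates.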

[1] = test compound with co-corrector
[2] = test compound with co-corrector, read-out: EC50 (with co-corrector)
[3] = test compound without co-corrector
[4] = test compound without co-corrector, read-out: EC50 (without co-corrector)

T1 sequence (P13569 with tags, fused parts or gaps DEL508-508): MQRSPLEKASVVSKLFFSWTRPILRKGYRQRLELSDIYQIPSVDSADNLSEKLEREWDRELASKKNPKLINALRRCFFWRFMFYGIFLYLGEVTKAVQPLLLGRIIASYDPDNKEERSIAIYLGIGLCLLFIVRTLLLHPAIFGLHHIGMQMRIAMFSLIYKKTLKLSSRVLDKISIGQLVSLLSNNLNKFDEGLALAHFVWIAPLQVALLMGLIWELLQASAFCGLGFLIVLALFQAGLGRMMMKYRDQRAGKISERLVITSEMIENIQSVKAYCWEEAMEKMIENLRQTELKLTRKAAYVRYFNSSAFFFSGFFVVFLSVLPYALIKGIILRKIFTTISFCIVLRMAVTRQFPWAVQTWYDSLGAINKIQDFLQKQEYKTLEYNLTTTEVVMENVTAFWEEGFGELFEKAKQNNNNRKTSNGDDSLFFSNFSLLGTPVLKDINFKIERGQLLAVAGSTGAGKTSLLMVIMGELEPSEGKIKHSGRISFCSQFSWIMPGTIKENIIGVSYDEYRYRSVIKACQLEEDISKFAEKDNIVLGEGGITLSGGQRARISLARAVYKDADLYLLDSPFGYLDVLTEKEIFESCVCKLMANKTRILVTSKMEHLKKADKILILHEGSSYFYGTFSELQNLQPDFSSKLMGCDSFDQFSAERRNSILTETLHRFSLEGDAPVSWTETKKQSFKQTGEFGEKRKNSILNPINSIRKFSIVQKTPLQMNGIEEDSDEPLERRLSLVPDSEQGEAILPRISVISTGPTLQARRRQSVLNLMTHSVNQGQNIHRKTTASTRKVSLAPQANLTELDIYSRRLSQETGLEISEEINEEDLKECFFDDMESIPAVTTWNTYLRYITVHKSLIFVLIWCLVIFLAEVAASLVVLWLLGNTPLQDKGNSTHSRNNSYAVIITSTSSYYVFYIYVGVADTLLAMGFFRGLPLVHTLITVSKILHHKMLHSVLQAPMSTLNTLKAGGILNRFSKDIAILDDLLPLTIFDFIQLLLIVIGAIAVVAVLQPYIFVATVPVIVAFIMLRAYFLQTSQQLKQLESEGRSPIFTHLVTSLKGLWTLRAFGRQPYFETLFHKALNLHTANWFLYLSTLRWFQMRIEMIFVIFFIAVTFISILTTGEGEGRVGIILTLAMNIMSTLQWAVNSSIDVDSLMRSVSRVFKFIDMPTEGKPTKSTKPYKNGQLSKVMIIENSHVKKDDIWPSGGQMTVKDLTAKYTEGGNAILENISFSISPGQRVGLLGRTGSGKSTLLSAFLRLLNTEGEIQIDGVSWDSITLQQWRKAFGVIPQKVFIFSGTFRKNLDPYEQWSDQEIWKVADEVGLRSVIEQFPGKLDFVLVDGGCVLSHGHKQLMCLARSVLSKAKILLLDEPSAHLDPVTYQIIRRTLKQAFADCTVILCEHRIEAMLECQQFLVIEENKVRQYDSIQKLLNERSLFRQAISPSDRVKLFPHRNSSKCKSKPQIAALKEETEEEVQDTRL

Compound | Maximum % activity (with co-corrector) [1] | EC50 [2] | Emax [3] | EC50 [4] | EC50 (with co-corrector) [1] | EC50 (without co-corrector) [3]
O=C(NS(=O)(=O)c1cccc2ccccc12)C1(c2cc(Cl)cnc2C(F)(F)F)CC1 [GII-5, 1-[5-chloro-2-(trifluoromethyl)pyridin-3-yl]-N-(naphthalene-1-sulfonyl)cyclopropane-1-carboxamide] | ++ (≥150 and <350) | 3 to 10 µM | 50 to 150% | 3 to 10 µM |  | 
COc1cc(C2(C(=O)NS(=O)(=O)c3cccc4ncccc34)CC2)c(Cl)cn1 [GII-6, 1-(5-chloro-2-methoxypyridin-4-yl)-N-(quinoline-5-sulfonyl)cyclopropane-1-carboxamide] | ++ (≥150 and <350) | 3 to 10 µM | 50 to 150% | 3 to 10 µM |  | 
COc1cc(C2(C(=O)NS(=O)(=O)c3cccc4c3CCCN4)CC2)c(Cl)cn1 [GII-7, 1-(5-chloro-2-methoxypyridin-4-yl)-N-(1,2,3,4-tetrahydroquinoline-5-sulfonyl)cyclopropane-1-carboxamide] | +++ (≥350) | 3 to 10 µM | 50 to 150% | 3 to 10 µM |  | 
Cc1cnc(N2CCOCC2)cc1C1(C(=O)NS(=O)(=O)c2cccc3ncccc23)CC1 [GII-8, 1-[5-methyl-2-(morpholin-4-yl)pyridin-4-yl]-N-(quinoline-5-sulfonyl)cyclopropane-1-carboxamide] | ++ (≥150 and <350) |  | < 50% | > 10 µM | ++^a | 
Cc1cnc(N2CCCC2)cc1C1(C(=O)NS(=O)(=O)c2cccc3ncccc23)CC1 [GII-9, 1-[5-methyl-2-(pyrrolidin-1-yl)pyridin-4-yl]-N-(quinoline-5-sulfonyl)cyclopropane-1-carboxamide] | ++ (≥150 and <350) | 3 to 10 µM | 50 to 150% | 3 to 10 µM |  | 
COc1nc(C(F)(F)F)ccc1C1(C(=O)NS(=O)(=O)c2cccc3ncccc23)CC1 [GII-10, 1-[2-methoxy-6-(trifluoromethyl)pyridin-3-yl]-N-(quinoline-5-sulfonyl)cyclopropane-1-carboxamide] | +++ (≥350) | 3 to 10 µM | > 150% | 3 to 10 µM |  | 
Cc1cnc(N(C)C)cc1C1(C(=O)NS(=O)(=O)c2cccc3ncccc23)CC1 [GII-11, 1-[2-(dimethylamino)-5-methylpyridin-4-yl]-N-(quinoline-5-sulfonyl)cyclopropane-1-carboxamide] | +++ (≥350) | 3 to 10 µM | 50 to 150% |  |  | ++^a
COc1nc(C(F)(F)F)ccc1C1(C(=O)NS(=O)(=O)c2cccc3c2CCCN3)CC1 [GII-12, 1-[2-methoxy-6-(trifluoromethyl)pyridin-3-yl]-N-(1,2,3,4-tetrahydroquinoline-5-sulfonyl)cyclopropane-1-carboxamide] | +++ (≥350) | 3 to 10 µM | 50 to 150% | 3 to 10 µM |  | 
COc1cc(C2(C(=O)NS(=O)(=O)c3cccc4ncccc34)CC2)c(C)cn1 [GII-13, 1-(2-methoxy-5-methylpyridin-4-yl)-N-(quinoline-5-sulfonyl)cyclopropane-1-carboxamide] | +++ (≥350) | 3 to 10 µM | 50 to 150% | 3 to 10 µM |  | 
O=C(NS(=O)(=O)c1cccc2ncccc12)C1(c2ccc(C(F)(F)F)nc2C2CCC2)CC1 [GII-14, 1-[2-cyclobutyl-6-(trifluoromethyl)pyridin-3-yl]-N-(quinoline-5-sulfonyl)cyclopropane-1-carboxamide] | +++ (≥350) | 3 to 10 µM | > 150% | 3 to 10 µM |  | 
COc1cnc(C2CC2)c(C2(C(=O)NS(=O)(=O)c3cccc4ncccc34)CC2)c1 [GII-15, 1-(2-cyclopropyl-5-methoxypyridin-3-yl)-N-(quinoline-5-sulfonyl)cyclopropane-1-carboxamide] | +++ (≥350) | 3 to 10 µM | > 150% | 3 to 10 µM |  | 
CCc1ncc(OC(C)C)cc1C1(C(=O)NS(=O)(=O)c2cccc3ncccc23)CC1 [GII-16, 1-{2-ethyl-5-[(propan-2-yl)oxy]pyridin-3-yl}-N-(quinoline-5-sulfonyl)cyclopropane-1-carboxamide] | ++ (≥150 and <350) | 3 to 10 µM | 50 to 150% |  |  | ++^a
CCc1ncc(OC)cc1C1(C(=O)NS(=O)(=O)c2cccc3ncccc23)CC1 [GII-17, 1-(2-ethyl-5-methoxypyridin-3-yl)-N-(quinoline-5-sulfonyl)cyclopropane-1-carboxamide] | ++ (≥150 and <350) | 3 to 10 µM | < 50% | 3 to 10 µM |  | 
COc1nc(N(C)C)ccc1C1(C(=O)NS(=O)(=O)c2cccc3ncccc23)CC1 [GII-18, 1-[6-(dimethylamino)-2-methoxypyridin-3-yl]-N-(quinoline-5-sulfonyl)cyclopropane-1-carboxamide] | +++ (≥350) | 3 to 10 µM | > 150% | 3 to 10 µM |  | 
COc1ccc(C2(C(=O)NS(=O)(=O)c3cccc4ccccc34)CC2)c(C)n1 [GII-19, 1-(6-methoxy-2-methylpyridin-3-yl)-N-(naphthalene-1-sulfonyl)cyclopropane-1-carboxamide] | +++ (≥350) | 3 to 10 µM | 50 to 150% |  |  | ++^a
CCc1ccncc1C1(C(=O)NS(=O)(=O)c2cccc3ccccc23)CC1 [GII-20, 1-(4-ethylpyridin-3-yl)-N-(naphthalene-1-sulfonyl)cyclopropane-1-carboxamide] | ++ (≥150 and <350) |  | 50 to 150% |  | ++^a | ++^a
CCc1ccncc1C1(C(=O)NS(=O)(=O)c2cccc3c2CCCN3)CC1 [GII-21, 1-(4-ethylpyridin-3-yl)-N-(1,2,3,4-tetrahydroquinoline-5-sulfonyl)cyclopropane-1-carboxamide] | ++ (≥150 and <350) | 3 to 10 µM | < 50% | > 10 µM |  | 
COc1cc(C)c(C2(C(=O)NS(=O)(=O)c3cccc4ccccc34)CC2)cn1 [GII-22, 1-(6-methoxy-4-methylpyridin-3-yl)-N-(naphthalene-1-sulfonyl)cyclopropane-1-carboxamide] | +++ (≥350) | 3 to 10 µM | > 150% | 3 to 10 µM |  | 
COc1cc(C)c(C2(C(=O)NS(=O)(=O)c3cccc4ncccc34)CC2)cn1 [GII-23, 1-(6-methoxy-4-methylpyridin-3-yl)-N-(quinoline-5-sulfonyl)cyclopropane-1-carboxamide] | ++ (≥150 and <350) |  | 50 to 150% |  | ++^a | ++^a
COc1cc(OC(C)C)c(C2(C(=O)NS(=O)(=O)c3cccc4c3CCCN4)CC2)cn1 [GII-24, 1-{6-methoxy-4-[(propan-2-yl)oxy]pyridin-3-yl}-N-(1,2,3,4-tetrahydroquinoline-5-sulfonyl)cyclopropane-1-carboxamide] | ++ (≥150 and <350) | 3 to 10 µM | 50 to 150% |  |  | ++^a
CC(C)Oc1ncc(C2CCC2)cc1C1(C(=O)NS(=O)(=O)c2cccc3c2CCCN3)CC1 [GII-25, 1-{5-cyclobutyl-2-[(propan-2-yl)oxy]pyridin-3-yl}-N-(1,2,3,4-tetrahydroquinoline-5-sulfonyl)cyclopropane-1-carboxamide] | +++ (≥350) | 3 to 10 µM | > 150% | 3 to 10 µM |  | 
CC(C)Oc1cnc(C2CCC2)cc1C1(C(=O)NS(=O)(=O)c2cccc3c2CCCN3)CC1 [GII-26, 1-{2-cyclobutyl-5-[(propan-2-yl)oxy]pyridin-4-yl}-N-(1,2,3,4-tetrahydroquinoline-5-sulfonyl)cyclopropane-1-carboxamide] | +++ (≥350) | 3 to 10 µM | > 150% | 3 to 10 µM |  | 
CC(C)Oc1cc(C2CCC2)cnc1C1(C(=O)NS(=O)(=O)c2cccc3ncccc23)CC1 [GII-27, 1-{5-cyclobutyl-3-[(propan-2-yl)oxy]pyridin-2-yl}-N-(quinoline-5-sulfonyl)cyclopropane-1-carboxamide] | ++ (≥150 and <350) | 3 to 10 µM | 50 to 150% | 3 to 10 µM |  | 
O=C(NS(=O)(=O)c1cccc2ncccc12)C1(c2cc(C3CCC3)cnc2N2CCOCC2)CC1 [GII-28, 1-[5-cyclobutyl-2-(morpholin-4-yl)pyridin-3-yl]-N-(quinoline-5-sulfonyl)cyclopropane-1-carboxamide] | ++ (≥150 and <350) | 3 to 10 µM | 50 to 150% |  |  | ++^a
O=C(NS(=O)(=O)c1cccc2c1CCCN2)C1(c2cc(C3CC3)cnc2N2CCCC2)CC1 [GII-29, 1-[5-cyclopropyl-2-(pyrrolidin-1-yl)pyridin-3-yl]-N-(1,2,3,4-tetrahydroquinoline-5-sulfonyl)cyclopropane-1-carboxamide] | +++ (≥350) | 3 to 10 µM | > 150% | 3 to 10 µM |  | 
CCc1cnc(N2CCCC2)c(C2(C(=O)NS(=O)(=O)c3cccc4ncccc34)CC2)c1 [GII-30, 1-[5-ethyl-2-(pyrrolidin-1-yl)pyridin-3-yl]-N-(quinoline-5-sulfonyl)cyclopropane-1-carboxamide] | +++ (≥350) | 3 to 10 µM | > 150% | 3 to 10 µM |  | 
